Assay results: US8916132B2, “Benzimidazole-derived compounds use as markers in the case of neurodegenerative diseases” (Servicios Cientificos Neuroinnovation Ltda, priority 2008, dated 2014)
Where two headings read alike, the source gives them in different places.

Assays:
[1] = Parallel Artificial Membrane Permeability assay (PAMPA)
Description: (§1) The analyzed parameters were: specific permeability (Sp), this is an indicator of the compound's ability to cross the hematoencephalic barrier (HEB) by passive diffusion, and the partition coefficient (LogP), which corresponds to the partition coefficient of the compound between Octanol and the pH 7.4 phosphate tampon, which is a predictive element for the compound's penetration of the HEB.
The Parallel Artificial Membrane Permeability assay (PAMPA) is based on the ability of compounds to diffuse from a donor compartment through a Polyvinylidene Fluoride Membrane Filter (PVDF) covered with a phosphatidylcholine solution at 20% towards a second acceptor compartment, which is analyzed. […] The quantification was carried out by means of spectrophotometry, using pans 1 mm in length and with a capacity of 300 uL.

[2] = Partition coefficient octanol / pH 7.4 tampon; conditions: for LogP Coefficient: octanol / pH 7.4 tampon, 25° C.; for CNS LogP: partition coefficient in relation to ability to cross the HEB
Description: as §1
Briefly, the partition coefficient (log Po/w) was determined in a pH 7.4 tampon solution, adjusted with 0.1 M sodium hydroxide. The organic phase utilized octanol saturated with the pH 7.4 tampon solution. A 1 mg/mL solution of the drug in methanol was prepared. Dilutions with concentrations ranging from 0.02 to 0.4 mg/mL were prepared from these solutions. Then […] portions were taken from each of these previously prepared stock solutions in 25 mL volumetric flasks, with the volume completed with the tampon pH 7.4. 25 ml of octanol where then measured and placed in three decantation funnels, with the previously prepared solutions added to each, mixing both phases by vigorous agitation during two minutes. […] Both phases are separated once equilibrium had been reached. The aqueous phase was centrifuged during 3 minutes to ensure complete separation of the phases. The entire process was carried out at a temperature of 25° C. The quantification was carried out with a UVN spectrophotometer.

[3] = In vivo pharmacokinetics in blood and cerebral tissue (HPLC/UV); conditions: male, C2 albino, rat, iv, astemizole 16 mg/kg, lansoprazole 8 mg/kg
[4] = rat, in vivo, iv
Tau Filaments in Vitro = Tau Filaments in Vitro (Homo sapiens, UniProt P10636); assay: ^3H-Astemizole displacement test, tau filaments in vitro
Alzheimer PHF = Alzheimer PHF (Homo sapiens, UniProt P10636); assay: ^3H-Astemizole displacement test, Alzheimer PHF
[5] = system: neurofibrillary tangles (NFTs); assay: Fixation in neurofibrillary tangles in postmortem brain sections of Alzheimer patients; conditions: co-localization with PHF-1 antibody, tritiated or fluorescent marking
Description: This evaluation was carried out by means of immunohistochemistry with antibodies specific for senile plaque, 6E10 antibody reactive against 6-13 residues of Aβ peptide, and the tau-specific PHF1 antibody.
In short, postmortem brains of patients with a proven clinical diagnosis of Alzheimer's Disease are set in formalin at 10%, with slices with sections varying from 5 to 200 μm made, preferably with 20 μm. These slices are incubated in benzimidazoles marked pursuant to the present invention and afterwards incubated with the specific 6E10 and PHF1 antibodies to determine the co-localization of the marker in the tau protein structures of the cerebral sections under study.
For practical purposes and as part of the examples, the co-localization of marked tau with fluorophore conjugate antibodies with the localization of the fluorescently marked drug is analyzed. The co-localization of both drugs with the tau aggregated structures in the hippocampus region, entorhinal cortex and nucleous of Meynert in the postmortem brains with Alzheimer's Disease was reviewed.

Aβ Fibers = Aβ Fibers (Homo sapiens, UniProt P05067); conditions: Okamura et al., 2005; cited from earlier work
mGluR7 = mGluR7 (Homo sapiens, UniProt Q14831); conditions: Yanamala et al., 2008; cited from earlier work
[6] = biological target: Aβ1-42 Peptide Aggregates (Homo sapiens, UniProt P05067); assay: ^3H-Astemizole saturation binding to Aβ1-42 peptide aggregates
in vivo = conditions: male, C2 albino, rat, iv
[7] = system: human tau protein aggregates (PHFs); assay: ^3H-Astemizole saturation binding to tau protein aggregates; conditions: for Bmax/Kd Index: Tau Protein Aggregates (PHF)
[8] = saturation test, Tau Protein Aggregates

Aβ1-42 Peptide Aggregates, sequence (P05067 672-713): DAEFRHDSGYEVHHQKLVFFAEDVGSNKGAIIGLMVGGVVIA
Aβ Fibers, sequence (P05067 672-713 limits assumed): as the sequence (P05067 672-713) above
Tau Filaments in Vitro, sequence (P10636 1-441 isoform P10636-8): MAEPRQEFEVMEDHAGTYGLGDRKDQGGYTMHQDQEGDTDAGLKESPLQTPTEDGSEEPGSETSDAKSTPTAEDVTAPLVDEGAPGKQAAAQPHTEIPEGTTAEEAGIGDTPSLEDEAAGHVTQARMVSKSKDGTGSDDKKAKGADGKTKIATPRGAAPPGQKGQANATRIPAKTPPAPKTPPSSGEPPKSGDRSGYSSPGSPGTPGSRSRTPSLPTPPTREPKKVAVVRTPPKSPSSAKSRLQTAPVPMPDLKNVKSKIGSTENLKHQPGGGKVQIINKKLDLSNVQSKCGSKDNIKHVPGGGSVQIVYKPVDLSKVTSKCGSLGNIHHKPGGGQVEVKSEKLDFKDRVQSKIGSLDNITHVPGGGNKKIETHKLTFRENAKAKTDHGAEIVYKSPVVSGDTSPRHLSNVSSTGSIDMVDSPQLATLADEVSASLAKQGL
Alzheimer PHF, sequence (P10636 623-758 limits assumed): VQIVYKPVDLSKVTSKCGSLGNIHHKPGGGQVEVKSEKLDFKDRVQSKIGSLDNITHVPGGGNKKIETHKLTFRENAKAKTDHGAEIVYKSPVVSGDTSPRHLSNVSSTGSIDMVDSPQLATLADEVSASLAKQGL
mGluR7, sequence (Q14831 35-915): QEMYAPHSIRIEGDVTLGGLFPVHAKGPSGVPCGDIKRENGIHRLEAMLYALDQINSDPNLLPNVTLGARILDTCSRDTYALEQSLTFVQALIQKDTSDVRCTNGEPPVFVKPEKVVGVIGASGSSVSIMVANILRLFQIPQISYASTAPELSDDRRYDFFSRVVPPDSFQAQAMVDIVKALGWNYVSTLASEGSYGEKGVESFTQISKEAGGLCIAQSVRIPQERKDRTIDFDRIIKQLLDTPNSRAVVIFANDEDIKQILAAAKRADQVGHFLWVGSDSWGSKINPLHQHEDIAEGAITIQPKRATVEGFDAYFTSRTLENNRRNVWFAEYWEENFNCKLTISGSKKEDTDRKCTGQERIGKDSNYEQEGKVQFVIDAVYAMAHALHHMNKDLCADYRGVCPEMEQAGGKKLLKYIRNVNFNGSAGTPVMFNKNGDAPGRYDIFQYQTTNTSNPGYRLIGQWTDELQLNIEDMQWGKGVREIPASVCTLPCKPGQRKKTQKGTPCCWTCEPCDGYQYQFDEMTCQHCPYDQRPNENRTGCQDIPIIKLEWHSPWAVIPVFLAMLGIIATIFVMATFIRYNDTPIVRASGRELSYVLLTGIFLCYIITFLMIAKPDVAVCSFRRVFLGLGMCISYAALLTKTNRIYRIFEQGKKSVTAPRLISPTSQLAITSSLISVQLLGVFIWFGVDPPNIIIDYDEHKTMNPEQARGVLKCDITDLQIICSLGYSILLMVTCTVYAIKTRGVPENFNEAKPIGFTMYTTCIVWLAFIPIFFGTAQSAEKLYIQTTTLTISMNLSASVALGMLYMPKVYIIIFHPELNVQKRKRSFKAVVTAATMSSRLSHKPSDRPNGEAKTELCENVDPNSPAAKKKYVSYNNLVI

With CCCC(C)C1(CC)C(=O)NC(=S)NC1=O (centres unmarked) [Thiopental] the Papp [1] was 17 ×10⁻⁶ cm/s and the “LogP Coefficient” value [2] was 1.4.
With Cc1c(OCC(F)(F)F)ccnc1C[S+]([O-])c1nc2ccccc2[nH]1 (centres unmarked) [Lansoprazole] the Tmax ([3]; brain (cerebral tissue), maximum concentration (Tmax) in the brain, cerebral tissue) was 37 min, the Tmax ([3]; whole blood (intracardiac), maximum concentration (Tmax) in blood, intracardiac blood) was 30 min and the “CNS Transport” value ([1]; PAMPA) was “Positive”. For the same molecule, the “Coefficient (Sp) specific permeability” value ([1]; PAMPA) was 3.63E−05, the “persistency in the encephalon / brain” value ([4]; male, C2 albino) was “at least 3 hours” and the “average life in plasma compared with brain” value [4] was “less than in the brain”. The Ki (Tau Filaments in Vitro) was 2.7 nM, the Ki (Alzheimer PHF) was 833 nM and the “marking of tau aggregates / NFTs in postmortem AD brain sections” value (shortened to “marking of tau aggregates / NFTs”) [5] was “bond to the NFTs structures”. For the same molecule, the “marking of tau aggregates / NFTs” value ([5]; listed as Lansoprazol) was “fluorescent staining of Tau protein aggregates” and the “marking of tau aggregates / NFTs” value ([5]; listed as lansoprazole) was “efficiently and selectively mark those sectors positive for tau”.
In the case of CNc1ccc(/C=C/c2nc3ccc(OCCF)cc3o2)cc1 [BF168], the Ki (Aβ Fibers) is given as 6.4 nM.
With C[N+]12CCC(CC1)C(OC(=O)C(O)(c1ccccc1)c1ccccc1)C2 (centres unmarked) [Clidinium Bromide] the “CNS Transport” value [1] was “Negative”, the Papp [1] was 0.029 ×10⁻⁶ cm/s and the “LogP Coefficient” value [2] was −0.092. For the same molecule, the “CNS LogP” value [2] was “Unfavorable”.
For c1ccc(C(NCCNC(c2ccccc2)c2ccccc2)c2ccccc2)cc1 [AMN82], the “Binding Energies Autodock” value (mGluR7) is listed as -7.56 kcal/mol.
With COc1ccc(CCN2CCC(Nc3nc4ccccc4n3Cc3ccc(F)cc3)CC2)cc1 [Astemizole] the “Bmax/Kd Index” value [6] was 0.057, the “CNS Transport” value ([1]; PAMPA) was “Positive” and the Papp ([1]; PAMPA) was 147 ×10⁻⁶ cm/s. For the same molecule, the “average life in plasma compared with brain” value [4] was “less than in the brain”, the Tmax (in vivo; maximum concentration (Tmax) in blood) was 28 min and the Tmax (in vivo; maximum concentration (Tmax) in the brain) was 55 min. For the same molecule, the “LogP Coefficient” value [2] was 5.57, the “CNS LogP” value [2] was “Favorable” and the “Bmax/Kd Index” value [7] was 3.316. For the same molecule, the “marking of tau aggregates / NFTs” value [5] was “bond to the NFTs structures” and the “marking of tau aggregates / NFTs” value ([5]; listed as astemizole) was “efficiently and selectively mark those sectors positive for tau”.
With [3H]C([3H])([3H])Oc1ccc(CCN2CCC(Nc3nc4ccccc4n3Cc3ccc(F)cc3)CC2)cc1 [^3H-Astemizole] the “Bmax/Kd Index” value [6] was 0.057, the Bmax ([6]; saturation test) was 0.12 pmol/nmol Aβ1-42 and the “Bmax/Kd Index” value [7] was 3.316. For the same molecule, the “binding affinity to tau protein aggregate forms compared with Aβ” value ([7]; at low concentrations, FIG. 7) was “greater binding affinity to tau protein aggregate forms than to Aβ” and the Bmax [7, 8] was 13.07 nM.
For Cc1c(OCC(F)(F)[18F])ccnc1C[S+]([O-])c1nc2ccccc2[nH]1 (centres unmarked) [^18F-Lansoprazole], the brain/blood bio-distribution relation (at 30 minutes) was 0.23, the reaches the brain (at 30 minutes) was 0.3% and the brain/blood bio-distribution relation (at 60 minutes) was 1.27. The reaches the brain (at 60 minutes) was 0.14%.
With COc1ccc(CCN2CCC(Nc3nc4ccccc4n3Cc3ccc(F)cc3)CC2)cc1 [^3H-Astemizole] the Kd ([6]; saturation test) was 2.1 nM and the Kd [7, 8] was 3.94 nM.
